Assay results as given in ChEMBL document CHEMBL1201862, “PubChem BioAssay data set” (2004).
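Protocol summary: plate cells (96-well), add compound at 5 concentrations, incubate 48 h, interpolate endpoints linearly. The concentration for 50% growth inhibition is given as GI50.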 Calls of active or inactive are those of the source. Rule as the data show it: active = GI50 up to about 1.1 µM and inactive = higher.

How the values were obtained:
Assay in all cases: NCI-60 cell line screen, 48 h
[1] = tested on: BT-549
[2] = tested on: EKVX
[3] = tested on: HT-29
[4] = tested on: Hs-578T
[5] = tested on: K562
[6] = tested on: LOX IMVI
[7] = tested on: M14
[8] = tested on: Malme-3M
[9] = tested on: NCI-H23
[10] = tested on: PC-3
[11] = tested on: RXF 393
[12] = tested on: SF-268
[13] = tested on: SF-295
[14] = tested on: SNB-19
[15] = tested on: SNB-75
[16] = tested on: SR
[17] = tested on: TK-10
[18] = tested on: UACC-257
[19] = tested on: UACC-62
[20] = tested on: UO-31

Measured: GI50

O=C(O)C1(Cc2ccc3c(c2)CCC3)Cc2ccccc2C1
inactive: [1] 29.8 µM | [2] 54.2 µM | [3] 88.3 µM | [4] 73.1 µM | [5] 56.8 µM | [6] 87.1 µM | [7] > 100 µM | [8] 71.3 µM | [9] 67.6 µM | [10] 63.5 µM | [11] 68.2 µM | [12] 52.7 µM | [13] 38.9 µM | [14] > 100 µM | [15] 67.1 µM | [16] > 100 µM | [17] > 100 µM | [18] > 100 µM | [19] 76.6 µM | [20] 46.1 µM

C/C1=C\CC/C(C)=C/C=C(/C(C)C)CC/C(C(=O)O)=C/CC1 [CROTOCEMBRANEIC ACID]
inactive: [1] 61.5 µM | [2] 39 µM | [3] 46.7 µM | [4] 72.1 µM | [5] 33.9 µM | [6] 54.8 µM | [7] 45 µM | [8] 70.1 µM | [9] 36.5 µM | [10] 40.2 µM | [11] 29.4 µM | [12] 72.8 µM | [13] 26.7 µM | [14] 53.3 µM | [15] 77.3 µM | [16] 22 µM | [17] 56.8 µM | [18] 82.8 µM | [19] 25.8 µM | [20] 72.8 µM
